Assay results from publication PMC11745148, “Identification of Cannabidiolic and Cannabigerolic Acids as MTDL AChE, BuChE, and BACE‐1 Inhibitors Against Alzheimer's Disease by In Silico, In Vitro, and In Vivo Studies” (Phytotherapy Research, 2024).
Read-outs that look alike come from different tables or passages of the source.

Columns and labels:
PPARα/γ = details: ref D'Aniello et al. [2019]; cited from earlier work
[1] = molecular target: T1, Human β-amyloid peptide (1–40) (Homo sapiens, UniProt P05067); assay: Aβ 1–40 self-aggregation inhibition assay (thioflavine T); type: biochemical; details: 96 μM peptide, 37°C, 24 h
T1 construct: Human β‐amyloid peptide (1–40, cat. ab120479); purchased Abcam ab120479
T1 sequence (P05067 672-711 limits assumed): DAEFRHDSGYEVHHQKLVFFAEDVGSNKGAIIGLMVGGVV

sAβ-injected mice [2] = assay: Tail suspension test in sAβ-induced AD mouse model; type: in vivo, CD1 male mice; details: 10 mg/kg i.p. repeated, days 3 to 10 after sAβ; sAβ/veh 74.250 ± 7.465; mean ± SEM
[3] = system: LEC-DG pathway (hippocampus) of sAβ-injected mice; assay: In vivo LTP recording in the LEC-DG pathway of sAβ-injected mice; parameters: species or system CD1 male mice; details: 10 mg/kg i.p. repeated; for fEPSP slope after TBS: 30–60 min after TBS, sAβ/veh 110.92 ± 0.86; for fEPSP slope after TBS / fEPSP amplitude 30–60 min after TBS: relative to baseline; for fEPSP amplitude 30–60 min after TBS: sAβ/veh 110.5 ± 1.73
mouse BACE-1 = molecular target: T2, mouse BACE-1 (Mus musculus, UniProt P56818); assay: BACE-1 activity, fluorimetric method; type: biochemical; details: for IC50: mouse BACE-1, pH 4.5, semilogarithmic plot
T2 construct: purchased Life Technology
T2 sequence (P56818 46-501): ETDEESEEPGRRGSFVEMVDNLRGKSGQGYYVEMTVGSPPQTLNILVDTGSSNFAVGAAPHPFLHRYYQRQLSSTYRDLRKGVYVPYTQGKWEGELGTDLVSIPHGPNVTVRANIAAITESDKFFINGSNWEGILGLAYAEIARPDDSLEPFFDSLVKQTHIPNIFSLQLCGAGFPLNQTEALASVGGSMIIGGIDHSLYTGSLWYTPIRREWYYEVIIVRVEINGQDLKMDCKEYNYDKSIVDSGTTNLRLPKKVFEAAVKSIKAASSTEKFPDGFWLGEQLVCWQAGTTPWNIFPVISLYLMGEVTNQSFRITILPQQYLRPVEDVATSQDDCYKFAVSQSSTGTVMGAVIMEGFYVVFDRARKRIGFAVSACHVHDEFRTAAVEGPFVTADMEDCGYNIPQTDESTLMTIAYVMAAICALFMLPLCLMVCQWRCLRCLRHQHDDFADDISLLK

GPR109A (HCA2) = molecular target: T3, GPR109A (HCA2) (Homo sapiens, UniProt Q8TDS4); assay: β-arrestin recruitment assay on GPR109A (HCA2-Tango, HTLA-HEK293 cells); type: cell-based; details: HTLA-HEK293 cells expressing HCA2; different doses; 20 h; vs vehicle
T3 construct: Tango fusion module; host or cells: HTLA-HEK293 cells stably expressing β-arrestin2-TEV and tTA-driven luciferase
T3 sequence (Q8TDS4 whole entry, the tested form may be a part): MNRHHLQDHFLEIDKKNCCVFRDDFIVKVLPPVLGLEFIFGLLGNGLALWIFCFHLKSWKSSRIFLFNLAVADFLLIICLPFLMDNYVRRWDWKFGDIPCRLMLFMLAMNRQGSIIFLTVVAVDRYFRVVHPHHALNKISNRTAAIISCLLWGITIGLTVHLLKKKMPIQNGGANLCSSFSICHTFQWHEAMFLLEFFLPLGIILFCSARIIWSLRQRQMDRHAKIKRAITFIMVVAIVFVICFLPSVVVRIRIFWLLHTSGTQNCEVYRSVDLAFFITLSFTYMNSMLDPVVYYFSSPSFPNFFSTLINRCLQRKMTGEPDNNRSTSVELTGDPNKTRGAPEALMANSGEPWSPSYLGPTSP

TRPM7 [4] = assay: Trpm7 mRNA expression in hippocampus by qPCR; type: in vivo, mouse; details: treatment day 3 to 10 postinduction; upregulated by sAβ
[5] = molecular target: T4, Acetylcholinesterase from Electrophorus electricus AChE (Electrophorus electricus, UniProt O42275); assay: Cholinesterase activity by the Elmann method, kinetic parameters and Ki on AChE; type: biochemical; details: for inhibition type on AChE: increase in Km without affecting Vmax
T4 construct: purchased Sigma-Aldrich
T4 sequence (O42275 24-633): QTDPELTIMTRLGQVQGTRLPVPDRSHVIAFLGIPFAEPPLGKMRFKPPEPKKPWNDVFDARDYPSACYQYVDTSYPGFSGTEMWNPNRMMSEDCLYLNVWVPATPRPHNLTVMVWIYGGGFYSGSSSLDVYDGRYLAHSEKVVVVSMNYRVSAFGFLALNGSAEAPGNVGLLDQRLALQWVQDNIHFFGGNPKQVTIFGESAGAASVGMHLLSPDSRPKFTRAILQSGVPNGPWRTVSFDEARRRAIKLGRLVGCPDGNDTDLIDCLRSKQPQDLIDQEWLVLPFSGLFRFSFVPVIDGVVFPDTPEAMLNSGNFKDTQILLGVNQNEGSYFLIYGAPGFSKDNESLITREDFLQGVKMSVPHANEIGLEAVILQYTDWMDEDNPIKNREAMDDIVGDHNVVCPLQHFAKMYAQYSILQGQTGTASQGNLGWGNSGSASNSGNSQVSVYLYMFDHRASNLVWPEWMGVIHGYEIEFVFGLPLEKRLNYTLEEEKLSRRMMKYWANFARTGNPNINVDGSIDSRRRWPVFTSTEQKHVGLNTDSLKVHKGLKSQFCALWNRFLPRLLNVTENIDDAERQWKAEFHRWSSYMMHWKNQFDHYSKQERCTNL

[6] = molecular target: T5, butirrylcholinesterase from equine serum BuChE (Equus caballus, UniProt P81908); assay: Cholinesterase activity by the Elmann method, kinetic parameters and Ki on BuChE; type: biochemical; details: for inhibition type on BuChE: decrease of Vmax without affecting Km
T5 construct: purchased Sigma-Aldrich; host or cells: equine serum
T5 sequence (P81908 whole entry): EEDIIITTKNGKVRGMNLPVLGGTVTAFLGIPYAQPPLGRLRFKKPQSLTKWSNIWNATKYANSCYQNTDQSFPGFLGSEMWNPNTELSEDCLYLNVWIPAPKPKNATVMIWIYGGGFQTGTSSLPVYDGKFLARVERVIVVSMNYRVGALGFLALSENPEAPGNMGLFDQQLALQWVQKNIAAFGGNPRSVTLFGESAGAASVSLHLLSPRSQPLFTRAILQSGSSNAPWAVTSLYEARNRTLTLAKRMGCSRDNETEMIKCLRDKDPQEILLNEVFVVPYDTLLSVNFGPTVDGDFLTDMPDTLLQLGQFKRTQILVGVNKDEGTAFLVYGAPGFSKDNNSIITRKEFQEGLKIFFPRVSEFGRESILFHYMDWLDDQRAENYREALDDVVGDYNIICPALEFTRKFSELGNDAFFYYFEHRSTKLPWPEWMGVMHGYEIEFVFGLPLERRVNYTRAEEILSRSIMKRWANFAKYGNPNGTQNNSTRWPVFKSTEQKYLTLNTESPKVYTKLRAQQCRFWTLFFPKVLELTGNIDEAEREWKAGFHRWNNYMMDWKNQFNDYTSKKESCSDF

TRPM7 [7] = details: ref Suzuki et al. [2023]; cited from earlier work
[8] = especially in a tween-based vehicle; ref Anderson et al. [2019]; cited from earlier work
sAβ-injected mice [9] = assay: Novel object recognition test in sAβ-induced AD mouse model; type: in vivo, CD1 male mice; details: 10 mg/kg i.p. repeated, days 3 to 10 after sAβ; test at 1 h; sAβ/veh −0.115 ± 0.030; mean ± SEM
[10] = molecular target: T6, cannabinoid CB2 receptor (CNR2-Tango) (Homo sapiens, UniProt P34972); assay: β-arrestin recruitment assay, positive control CNR2-Tango; type: cell-based
T6 construct: Tango fusion module; expressed in transfected cells; host or cells: HTLA-HEK293 cells
T6 sequence (P34972 whole entry, the tested form may be a part): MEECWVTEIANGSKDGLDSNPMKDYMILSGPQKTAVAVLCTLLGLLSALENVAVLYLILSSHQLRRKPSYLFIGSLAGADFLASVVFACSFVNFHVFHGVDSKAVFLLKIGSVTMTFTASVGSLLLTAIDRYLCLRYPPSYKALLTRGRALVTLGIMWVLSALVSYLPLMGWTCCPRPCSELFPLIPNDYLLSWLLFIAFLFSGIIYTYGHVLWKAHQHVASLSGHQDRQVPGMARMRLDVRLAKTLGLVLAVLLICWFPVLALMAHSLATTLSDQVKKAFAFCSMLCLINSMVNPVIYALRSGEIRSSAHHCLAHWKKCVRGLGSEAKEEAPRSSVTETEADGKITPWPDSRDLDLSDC

[11] = AChE, inhibitor 1.25 µM, Lineweaver-Burk equation, from increase of Km, mean Ki in μM, read-out: Ki LB
[12] = AChE, inhibitor 1.25 µM, Michaelis-Menten interpolation, from increase of Km, mean Ki in μM, read-out: Ki MM
[13] = AChE, inhibitor 2.50 µM, Lineweaver-Burk equation, from increase of Km, mean Ki in μM, read-out: Ki LB
[14] = AChE, inhibitor 3.00 µM, Lineweaver-Burk equation, from increase of Km, mean Ki in μM, read-out: Ki LB
[15] = AChE, inhibitor 3.00 µM, Michaelis-Menten interpolation, from increase of Km, mean Ki in μM, read-out: Ki MM
[16] = mean over experiments, n = 6 CBDA, n = 7 CBGA, competitive inhibition, read-out: calculated Ki, AChE
[17] = BuChE, Exp. 1, inhibitor 10 µM, Lineweaver-Burk equation, from decrease of Vmax, mean Ki in μM, read-out: Ki LB
[18] = BuChE, Exp. 1, inhibitor 10 µM, Lineweaver-Burk equation, no inhibitor 0.295
[19] = BuChE, Exp. 1, inhibitor 10 µM, Michaelis-Menten interpolation, from decrease of Vmax, mean Ki in μM, read-out: Ki MM
[20] = BuChE, Exp. 1, inhibitor 10 µM, Michaelis-Menten interpolation, no inhibitor 0.299
[21] = BuChE, Exp. 2, inhibitor 2.66 µM, Lineweaver-Burk equation, from decrease of Vmax, mean Ki in μM, read-out: Ki LB
[22] = BuChE, Exp. 2, inhibitor 2.66 µM, Lineweaver-Burk equation, no inhibitor 0.220
[23] = BuChE, Exp. 2, inhibitor 2.66 µM, Michaelis-Menten interpolation, from decrease of Vmax, mean Ki in μM, read-out: Ki MM
[24] = mean over experiments, n = 4, noncompetitive inhibition, read-out: calculated Ki, BuChE

SMILES	activity on PPARα/γ (PPARα/γ)	IC50 [1] [µM]	immobility in tail suspension test (sAβ-injected mice [2]) [s]	fEPSP slope after TBS [3] [%]	fEPSP amplitude 0–15 min (baseline) [3] [%]	fEPSP slope 0–15 min (baseline) [3] [%]	fEPSP amplitude 30–60 min after TBS [3] [%]	IC50 (mouse BACE-1) [µM]	β-arrestin recruitment / activation of GPR109A (GPR109A (HCA2))	Trpm7 expression in hippocampus (TRPM7 [4])	Ki [5, 11] [µM]	Ki [5, 12] [µM]	Ki [5, 13] [µM]	Ki [5, 14] [µM]	Ki [5, 15] [µM]	inhibition type on AChE [5]	Ki [5, 16] [µM]	Ki [6, 17] [µM]	Vmax LB [6, 18]	Ki [6, 19] [µM]	further results
C=C(C)[C@@H]1CCC(C)=C[C@H]1c1c(O)cc(CCCCC)c(C(=O)O)c1O [CBDA, cannabidiolic acid]	dual PPARα/γ agonists	57.5 ± 0.8	64.000 ± 12.523	157.46 ± 14.5	99.97 ± 0.024	99.95 ± 0.27	132.08 ± 2.83	6.1 ± 0.2	no recruitment of β‐arrestin and no direct receptor activation	reverted to the basal level	55	32.1	10.5	10.6	3.4	competitive inhibitors	7.9 ± 4.3	6.1	0.112	6.6	Ki ([5]; AChE, inhibitor 1.75 µM, Lineweaver-Burk equation, from increase of Km, mean Ki in μM, read-out: Ki LB): 4.2 µM; Ki ([5]; AChE, inhibitor 1.75 µM, Michaelis-Menten interpolation, from increase of Km, mean Ki in μM, read-out: Ki MM): 13.9 µM; Vmax MM [6, 20]: 0.119; Ki [6, 21]: 7.5 µM; Vmax LB [6, 22]: 0.162; Ki [6, 23]: 6.4 µM; inhibition type on BuChE [6]: noncompetitive inhibitors; Ki [6, 24]: 6.7 ± 0.6 µM; activity on TRPM7 (TRPM7 [7]): inhibitors of TRPM7; blood–brain barrier crossing [8]: can cross the blood–brain barrier
CCCCCc1cc(O)c(C/C=C(\C)CCC=C(C)C)c(O)c1C(=O)O [CBGA, cannabigerolic acid]	dual PPARα/γ agonists	47.7 ± 2.1	20.500 ± 6.764	203.21 ± 22.55	100.8 ± 0.61	100.94 ± 1.15	174.34 ± 6.97	1.4 ± 0.1	no recruitment of β‐arrestin and no direct receptor activation	reverted to the basal level	13.5	9.1	9.6	6.5	8.1	competitive inhibitors	10.5 ± 2.9	39.2	0.235	26	efficiency in inhibiting mBACE-1, CBGA relative to CBDA (mouse BACE-1; ratio of IC50 values): roughly 4 times; NOR index (recognition index) (sAβ-injected mice [9]): 0.183 ± 0.052; Ki ([5]; AChE, inhibitor 2.50 µM, Michaelis-Menten interpolation, from increase of Km, mean Ki in μM, read-out: Ki MM): 12.2 µM; Ki ([5]; AChE, inhibitor 3.75 µM, Lineweaver-Burk equation, from increase of Km, mean Ki in μM, read-out: Ki LB): 14.4 µM; Ki ([5]; AChE, inhibitor 3.75 µM, Michaelis-Menten interpolation, from increase of Km, mean Ki in μM, read-out: Ki MM): 26.7 µM; Vmax MM [6, 20]: 0.216; Ki [6, 21]: 14.1 µM; Vmax LB [6, 22]: 0.185; Ki [6, 23]: 14 µM; Vmax MM ([6]; BuChE, Exp. 2, inhibitor 2.66 µM, Michaelis-Menten interpolation, no inhibitor 0.249): 0.209; inhibition type on BuChE [6]: noncompetitive inhibitors; Ki [6, 24]: 23.3 ± 12 µM; activity on TRPM7 (TRPM7 [7]): inhibitors of TRPM7
CCCC(C)(C)c1ccc2c(c1)OC(C)(C)[C@@H]1CC=C(C)C[C@@H]21 [JWH-133]	–	–	–	–	–	–	–	–	–	–	–	–	–	–	–	–	–	–	–	–	β-arrestin recruitment at CB2 receptor [10]: strong β-arrestin recruitment
